What was measured:
human MR = biological target: T1, human MR (Homo sapiens, UniProt P08235); experiment: Mineralocorticoid Receptor Binding Assay (Method 1); details: [3H]-aldosterone
T1 construct: The full length human MR gene is cloned from a human kidney or human brain cDNA library; made in house; host or cells: SF9 insect cells (baculovirus)
T1 sequence (P08235 1-984): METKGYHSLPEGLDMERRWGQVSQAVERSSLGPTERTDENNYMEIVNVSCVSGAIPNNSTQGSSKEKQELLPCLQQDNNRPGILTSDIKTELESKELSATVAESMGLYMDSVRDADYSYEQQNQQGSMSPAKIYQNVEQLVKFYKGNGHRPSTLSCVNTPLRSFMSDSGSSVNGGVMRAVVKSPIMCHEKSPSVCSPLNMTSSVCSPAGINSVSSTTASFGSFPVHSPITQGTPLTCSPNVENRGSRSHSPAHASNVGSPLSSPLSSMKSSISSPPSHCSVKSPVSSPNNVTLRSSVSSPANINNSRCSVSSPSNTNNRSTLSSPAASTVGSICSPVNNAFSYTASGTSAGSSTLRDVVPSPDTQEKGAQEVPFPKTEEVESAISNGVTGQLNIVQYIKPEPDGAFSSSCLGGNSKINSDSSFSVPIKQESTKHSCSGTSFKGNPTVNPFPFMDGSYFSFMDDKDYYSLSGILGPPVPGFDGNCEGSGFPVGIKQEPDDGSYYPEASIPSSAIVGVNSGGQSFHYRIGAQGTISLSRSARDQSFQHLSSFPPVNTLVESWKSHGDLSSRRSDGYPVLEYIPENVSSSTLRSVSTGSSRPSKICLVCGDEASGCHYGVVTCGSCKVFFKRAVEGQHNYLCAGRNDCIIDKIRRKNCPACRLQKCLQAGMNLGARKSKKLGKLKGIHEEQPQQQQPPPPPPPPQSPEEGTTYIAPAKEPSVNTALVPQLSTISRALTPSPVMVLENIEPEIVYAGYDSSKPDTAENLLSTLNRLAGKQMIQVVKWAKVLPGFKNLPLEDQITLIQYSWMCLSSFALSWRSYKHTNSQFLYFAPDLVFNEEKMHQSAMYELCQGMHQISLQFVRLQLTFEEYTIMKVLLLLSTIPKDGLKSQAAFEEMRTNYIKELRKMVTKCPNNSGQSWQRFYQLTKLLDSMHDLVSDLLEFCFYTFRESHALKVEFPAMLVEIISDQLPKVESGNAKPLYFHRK
Experimental: The full length human MR gene is cloned from a human kidney or human brain cDNA library. Briefly, using synthetic oligonucleotide primers (Eli Lilly and Company, Indianapolis) directed to nucleotides 20-54 and 3700-3666 of the human MR, polymerase chain reaction (PCR) is performed under standard conditions using a human cDNA library. The PCR reaction is performed in a final volume of 50 μl containing about 1 μl of a 50× stock solution of polymerase; about 1 μl of a 50× stock solution of DNTP; about 5 μl of an appropriate PCR buffer; about 1 μl of each primer; about 5 μl of a H. kidney or H. brain cDNA library; and about 36 μl of water. The reaction is allowed to denature for about 30 seconds at 95 degrees Celsius, anneal for about 30 seconds at 55 degrees Celsius, and extend for about 5 minutes at 72 degrees Celsius, the sequence being repeated for a total of about 35 cycles. The desired PCR product (3.68 Kb) is confirmed by gel electrophoresis and subsequently cut from the gel and stored at about −20 degrees Celsius until extraction. To extract the cDNA product from the agarose gel, the QIAEX II Gel Extraction protocol (QIAGEN, Inc.) is employed according to the manufacturer's instructions. Following extraction, the MR cDNA is cloned into an appropriate cloning vector (Zero Blunt TOPO PCR Cloning Kit (Invitrogen, Inc.) and a pAcHLT-baculovirus transfer vector (B.D./Pharminogen), then expressed in SF9 insect cells, essentially according to manufacturer's instructions. Sf9 cells are grown at a scale where gram quantity cell pellets are obtained for subsequent use in the MR binding assay. Harvested cell pellets are lysed by repeated freeze-thaw cycles (about 4) in a suitable lysis buffer then centrifuged at about 1×10^3 G (with the supernatant being saved for future assays).
MR binding assays are performed in a final total volume of about 250 μl containing about 20-25 μg of protein and 0.5 nM of [^3H]-aldosterone plus varying concentrations of test compound or vehicle. The assay binding buffer consists of 30 mM sodium molybdate, 30 mM of TRIS-HCl, 5 mM sodium phosphate, 5 mM sodium pyrophosphate, and about 10% glycerol, pH=7.5.
Briefly, assays are prepared at RT in 96-well Falcon 3072 plates, each well containing 210 μl of binding buffer, 10 μl of [^3H]-aldosterone, 10 μl of test compound/vehicle, and 20 μl of the resuspended receptor protein extract. Incubations are carried out at 4 degrees Celsius with shaking for about 16 hours. 200 μl aliquots of each incubation are filtered onto Millipore HA 0.45 micron 96-well filter plates, pre-moistened with cold 30 mM TRIS-HCl. The filter plates are suctioned dry with vacuum and immediately washed 3× with cold 30 mM TRIS-HCl. The plates are then punched out and the amount of receptor-ligand complex is determined by liquid scintillation counting using 4 ml of Ready Protein Plus™ liquid scintillation cocktail.

glucocorticoid receptor = biological target: T2, glucocorticoid receptor (Homo sapiens, UniProt P04150); experiment: Glucocorticoid Receptor Binding Assay (Method 1); details: A549 cell extract, [3H]-dexamethasone, read-out: GR Ki
T2 construct: containing 50-200 ug of A549 cell extract and 1.86 nM [^3H]-dexamethasone; host or cells: A549 human lung epithelial cells
T2 sequence (P04150 1-777): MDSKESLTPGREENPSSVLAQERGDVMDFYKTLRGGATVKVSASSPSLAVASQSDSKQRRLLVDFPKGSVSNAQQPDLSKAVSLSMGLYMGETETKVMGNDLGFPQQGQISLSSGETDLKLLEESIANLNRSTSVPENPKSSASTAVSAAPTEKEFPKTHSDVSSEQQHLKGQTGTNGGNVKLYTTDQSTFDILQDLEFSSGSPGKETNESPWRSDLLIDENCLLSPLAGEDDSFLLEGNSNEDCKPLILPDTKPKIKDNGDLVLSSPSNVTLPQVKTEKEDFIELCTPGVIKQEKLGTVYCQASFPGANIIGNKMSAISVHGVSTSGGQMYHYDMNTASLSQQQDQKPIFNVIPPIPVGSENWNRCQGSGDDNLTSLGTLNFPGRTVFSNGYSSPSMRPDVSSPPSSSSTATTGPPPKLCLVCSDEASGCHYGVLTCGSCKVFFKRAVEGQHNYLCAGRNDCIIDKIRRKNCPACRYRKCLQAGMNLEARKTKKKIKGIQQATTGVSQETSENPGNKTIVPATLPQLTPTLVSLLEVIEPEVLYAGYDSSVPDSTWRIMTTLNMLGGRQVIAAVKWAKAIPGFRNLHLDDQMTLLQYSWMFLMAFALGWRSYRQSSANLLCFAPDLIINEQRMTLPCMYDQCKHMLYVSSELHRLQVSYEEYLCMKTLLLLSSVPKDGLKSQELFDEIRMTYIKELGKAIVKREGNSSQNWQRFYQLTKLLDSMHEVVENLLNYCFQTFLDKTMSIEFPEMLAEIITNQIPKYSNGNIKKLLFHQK
Experimental: A549 human lung epithelial cells (ATCC) are grown at a scale where gram quantity cell pellets are obtained. Harvested cell pellets are washed twice in cold phosphate buffered saline, centrifuged, and resuspended in cold assay binding buffer. The assay binding buffer consists of 10% glycerol, 50 mM Tris-HCl (pH7.2), 75 mM sodium chloride, 1.5 mM magnesium chloride, 1.5 mM EDTA, and 10 mM sodium molybdate. Cell suspensions were lysed via sonication, centrifuged, and the “extract” supernatant is snap frozen and stored at −80 C until needed.
GR binding assays are performed in a final volume of 140 ul containing 50-200 ug of A549 cell extract and 1.86 nM [^3H]-dexamethasone (Amersham) plus varying concentrations of test compound or vehicle. Briefly, assays are prepared at RT in 96-well Fisher 3356 plates, each well containing 100 ul of A549 cell extract, 20 ul of [^3H]-dexamethasone, and 20 ul of test compound/vehicle. Incubations are carried out at 4 degrees Celsius for 16 hours. After incubation, 70 ul of 3× dextran-coated charcoal solution is added to each reaction, mixed, and incubated for 8 minutes at RT. […] 200 ul of Microscint-20 scinillant (Packard Instruments) is added to each well and amount of receptor bound radioligand is determined using Packard Instruments TopCount instrument.

[1] = in combination with standard CHF therapy, patients suffering from advanced CHF; cited from earlier work

Row | Ki (human MR) [nM] | SMILES | other results
1 | < 500 | CN(C)CCn1c(=O)[nH]c2cc(/C=C3\c4ccccc4COc4cc(F)ccc43)ccc21 [Example 6] | Ki (glucocorticoid receptor): < 10000 nM
2 | < 500 | CN1CC[C@@H](n2c(=O)[nH]c3cc(/C=C4/c5ccc(F)cc5OCc5c(F)cccc54)ccc32)C1 [Example 47] | 
3 | < 500 | O=c1[nH]c2cc(C=C3c4ccc(F)cc4CCc4cc(F)ccc43)ccc2n1CCCN1CCOCC1 [Example 48] | 
4 | < 500 | O=c1[nH]c2cc(C=C3c4ccc(F)cc4CCc4cc(F)ccc43)ccc2n1CCN1CCNCC1 [Example 49] | 
5 | < 500 | O=c1[nH]c2cc(C=C3c4ccc(F)cc4CCc4cc(F)ccc43)ccc2n1CCN1CCCC1 [Example 50] | 
6 | < 500 | CN(C)CCn1c(=O)[nH]c2cc(C=C3c4ccc(F)cc4CCc4cc(F)ccc43)ccc21 [Example 51] | 
7 | < 500 | CN1CCN(CCn2c(=O)[nH]c3cc(C=C4c5ccc(F)cc5CCc5cc(F)ccc54)ccc32)CC1 [Example 52] | 
8 |  | CC(=O)S[C@@H]1CC2=CC(=O)CC[C@]2(C)[C@H]2CC[C@@]3(C)[C@@H](CC[C@@]34CCC(=O)O4)[C@H]12 [spironolactone] | reduced cardiac related mortality [1]: 30%; reduced frequency of hospitalization [1]: 35%

Source: patent US20070037788A1, “Tricyclic steroid hormone nuclear receptor modulators” (Eli Lilly and Company, priority 2003, published 2007)
